Measurements from patent publication US11523612B2, “Pesticidal composition comprising oxime carbamate and use thereof” (priority 2017, dated 2022).

Columns and labels:
[1] = Solubility Test 1: oxamyl dissolved in solvent systems, crystallization or precipitation observed; type: physicochemical
[2] = as above; type: physicochemical; remark: listed apart in the source
Description: Samples of each solution were kept at −6° C. and −18° C. for 7 days, after which the degree of crystallization or precipitation of oxamyl was observed.

[3] = 40 g oxamyl in Methanol:Water 80:20 g
[4] = 40 g oxamyl in Methanol:Water:Propylene Carbonate 30:20:50 g
[5] = 40 g oxamyl in Methanol:Water:Propylene Carbonate 75:20:5 g
[6] = 40 g oxamyl in Methanol:Water 50:50 g
[7] = 40 g oxamyl in Methanol:Water:Propylene Carbonate 40:30:30 g
[8] = 40 g oxamyl in Methanol:Water:Propylene Carbonate 40:40:20 g
[9] = 40 g oxamyl in Methanol:Water:Propylene Carbonate 50:40:10 g
[10] = 40 g oxamyl in Methanol:Water:Propylene Carbonate 60:20:20 g

CNC(=O)O/N=C(\SC)C(=O)N(C)C [Oxamyl, methyl 2-(dimethylamino)-N-[[(methylamino)carbonyl]oxy]-2-oxoethanimidothioate]
Mild precipitation: Observations after 7 days at −6° C. [2, 6]
Significant precipitation: Observations after 7 days at −18° C. [2, 6] | Observations after 7 days at −18° C. [2, 3]
Clear solution: Observations at room temperature [1, 3] | Observations at room temperature [1, 4] | Observations at room temperature [1, 5] | Observations at room temperature [2, 6] | Observations after 7 days at −6° C. [2, 3] | Observations after 7 days at −6° C. [2, 4] | Observations after 7 days at −18° C. [2, 4] | Observations after 7 days at −6° C. [2, 7] | Observations after 7 days at −18° C. [2, 7] | Observations at room temperature [2, 7] | Observations after 7 days at −6° C. [2, 8] | Observations after 7 days at −18° C. [2, 8] | Observations at room temperature [2, 8] | Observations after 7 days at −6° C. [2, 9] | Observations after 7 days at −18° C. [2, 9] | Observations at room temperature [2, 9] | Observations after 7 days at −6° C. [2, 10] | Observations after 7 days at −18° C. [2, 10] | Observations at room temperature [2, 10] | Observations after 7 days at −6° C. [2, 5] | Observations after 7 days at −18° C. [2, 5]
significantly higher solubility: solubility for oxamyl ([2]; solvent system comprising methanol, water and propylene carbonate, temperatures down to −18° C.)
